{
  "source": "paper PMC6572064",
  "about": "“Discovery of 2-(1-(3-(4-Chloroxyphenyl)-3-oxo- propyl)pyrrolidine-3-yl)-1H-benzo[d]imidazole-4-carboxamide: A Potent Poly(ADP-ribose) Polymerase (PARP) Inhibitor for Treatment of Cancer” (Molecules, 2019)",
  "key": {"[1]": {"test_system": "CAPAN-1 (a BRCA-2-mutated pancreatic cancer cell line)", "experiment": "Cell proliferation assay, three-day, CellTiter-Glo, CAPAN-1", "format": "cell-based", "protocol": "(§1) A three-day assay was conducted. A cell suspension was prepared. Cell density was counted by an automated cell counter and then diluted to the required density, according to seeding density. 50 μL cells were seeded into 384-well plate in growth medium according to the plate map. The cells were incubated at 37 °C, 5% CO2 overnight.\n(§2) 200× compound solution in DMSO was prepared and diluted with growth medium to 26× final concentration by addition of 26 μL 200× compounds to 174 μL growth medium. Then 2 μL of diluted compound solution was added to cells and the cell was incubated at 37 °C, 5% CO2 for 72 h.\n(§3) The assay plate was equilibrated to room temperature prior to measurement. 15 μL of CellTiter-Glo Reagent was added into each well and the contents were mixed for 2 min on an orbital shaker to induce cell lysis. The cells were incubated at room temperature for 60 min to stabilize luminescent signal. Luminescence was recorded on the Envision system."}, "[2]": {"test_system": "MDA-MB-436 (a BRCA-1-mutated breast cancer cell line)", "experiment": "Cell proliferation assay, three-day, CellTiter-Glo, MDA-MB-436", "format": "cell-based", "conditions": "for IC50 / inhibition at 0.00508 µM / inhibition at 0.0152 µM / inhibition at 0.0457 µM / inhibition at 0.41 µM / inhibition at 1.23 µM / inhibition at 3.7 µM / inhibition at 11.11 µM / inhibition at 33.33 µM / inhibition at 100 µM: Homo sapiens", "protocol": "as §1, §2, §3"}, "PARP-2": {"target": "T1, PARP-2 (Homo sapiens, UniProt Q9UGN5)", "T1 construct": "purchased BPS Bioscience 80552", "T1 sequence (Q9UGN5 whole entry)": "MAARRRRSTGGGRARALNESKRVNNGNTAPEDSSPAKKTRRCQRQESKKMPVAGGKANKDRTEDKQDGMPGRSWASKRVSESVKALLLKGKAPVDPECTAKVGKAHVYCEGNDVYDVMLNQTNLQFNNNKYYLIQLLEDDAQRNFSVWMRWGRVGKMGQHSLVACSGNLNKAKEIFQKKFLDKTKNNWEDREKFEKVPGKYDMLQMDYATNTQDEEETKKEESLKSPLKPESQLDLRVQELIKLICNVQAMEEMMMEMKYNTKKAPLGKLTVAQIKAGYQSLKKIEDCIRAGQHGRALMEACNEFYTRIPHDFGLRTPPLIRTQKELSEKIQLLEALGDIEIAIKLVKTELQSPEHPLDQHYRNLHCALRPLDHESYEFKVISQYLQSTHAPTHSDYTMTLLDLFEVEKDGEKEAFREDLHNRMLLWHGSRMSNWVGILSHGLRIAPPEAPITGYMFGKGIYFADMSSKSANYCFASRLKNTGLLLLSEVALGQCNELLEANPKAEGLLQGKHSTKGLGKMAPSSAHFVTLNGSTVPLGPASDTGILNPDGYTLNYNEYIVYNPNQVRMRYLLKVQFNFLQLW", "experiment": "PARP-2 inhibition assay (PARP-2 Chemiluminescent Assay Kit, BPS Bioscience)", "format": "biochemical", "protocol": "(§4) The PARP-1 and PARP-2 inhibition assays were performed in outsourcing, by a CRO company, Shanghai Medicilon Inc. (Shanghai, China). […] Briefly, PARP-1 or PARP-2 biotinylated substrate was incubated with compounds or solvent control at varying concentrations and an assay buffer containing the PARP-1 or PARP-2 enzyme."}, "PARP-1": {"target": "T2, PARP-1 (Homo sapiens, UniProt P09874)", "T2 construct": "purchased BPS Bioscience 80569", "T2 sequence (P09874 whole entry)": "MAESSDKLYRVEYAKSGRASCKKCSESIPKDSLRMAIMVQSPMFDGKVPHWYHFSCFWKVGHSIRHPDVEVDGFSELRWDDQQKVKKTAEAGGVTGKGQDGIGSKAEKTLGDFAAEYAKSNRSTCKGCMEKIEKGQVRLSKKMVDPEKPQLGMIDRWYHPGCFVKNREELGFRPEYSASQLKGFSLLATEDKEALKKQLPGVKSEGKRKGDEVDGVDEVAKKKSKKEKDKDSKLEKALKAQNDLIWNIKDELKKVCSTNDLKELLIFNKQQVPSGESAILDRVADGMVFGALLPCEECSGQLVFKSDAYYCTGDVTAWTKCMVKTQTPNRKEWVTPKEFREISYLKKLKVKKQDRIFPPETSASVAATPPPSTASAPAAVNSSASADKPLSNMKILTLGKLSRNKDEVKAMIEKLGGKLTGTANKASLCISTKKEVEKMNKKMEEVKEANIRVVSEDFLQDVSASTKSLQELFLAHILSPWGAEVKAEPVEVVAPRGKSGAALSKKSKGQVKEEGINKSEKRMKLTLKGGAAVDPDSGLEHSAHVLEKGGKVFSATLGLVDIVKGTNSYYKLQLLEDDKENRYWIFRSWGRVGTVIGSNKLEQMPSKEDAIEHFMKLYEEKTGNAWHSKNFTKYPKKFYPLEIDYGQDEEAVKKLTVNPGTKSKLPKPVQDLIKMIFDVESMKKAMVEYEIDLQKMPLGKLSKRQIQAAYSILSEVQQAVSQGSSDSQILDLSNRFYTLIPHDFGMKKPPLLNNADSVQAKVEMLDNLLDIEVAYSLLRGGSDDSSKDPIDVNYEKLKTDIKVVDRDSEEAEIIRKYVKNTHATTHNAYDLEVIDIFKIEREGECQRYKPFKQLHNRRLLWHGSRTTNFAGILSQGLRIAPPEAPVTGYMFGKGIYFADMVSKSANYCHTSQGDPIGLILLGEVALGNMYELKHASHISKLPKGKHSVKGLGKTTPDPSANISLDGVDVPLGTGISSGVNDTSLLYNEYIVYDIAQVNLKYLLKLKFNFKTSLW", "experiment": "PARP-1 inhibition assay (PARP-1 Chemiluminescent Assay Kit, BPS Bioscience)", "format": "biochemical", "protocol": "as §4"}, "[3]": {"conditions": "Homo sapiens, CAPAN-1, read-out: Inh % 1"}, "[4]": {"conditions": "Homo sapiens, CAPAN-1, read-out: Inh % 2"}},
  "note": "Where two headings read alike, the source gives them in different places.",
  "data": [
    {"compound": "NC(=O)c1cccc2[nH]c(C3CCN(CCC(O)c4ccccc4)C3)nc12", "note": "(centres unmarked) [Compound 5cg, 2-(1-(3-Hydroxy-3-phenylpropyl)pyrrolidin-3-yl)-1H-benzo[d]imi-dazole-4-carboxamide]", "values": [
      {"measurement": "LogIC50", "setting": "[1]; CAPAN-1, curve-fit output, Log (uM)", "value": 2.199},
      {"measurement": "IC50", "setting": "[1]; Homo sapiens, CAPAN-1, 72 h, read-out: CAPAN-1 IC50 (μM)", "value": "> 100", "unit": "µM"},
      {"measurement": "inhibition at 0.00508 µM", "setting": "[1]; [3]", "value": 4.5, "unit": "%"},
      {"measurement": "inhibition at 0.0152 µM", "setting": "[1]; [3]", "value": 16.3, "unit": "%"},
      {"measurement": "inhibition at 0.0457 µM", "setting": "[1]; [3]", "value": 5.6, "unit": "%"},
      {"measurement": "inhibition at 0.41 µM", "setting": "[1]; [3]", "value": 14.3, "unit": "%"},
      {"measurement": "inhibition at 1.23 µM", "setting": "[1]; [3]", "value": 11.4, "unit": "%"},
      {"measurement": "inhibition at 3.7 µM", "setting": "[1]; [3]", "value": 16.5, "unit": "%"},
      {"measurement": "inhibition at 11.11 µM", "setting": "[1]; [3]", "value": 22, "unit": "%"},
      {"measurement": "inhibition at 33.33 µM", "setting": "[1]; [3]", "value": 33.5, "unit": "%"},
      {"measurement": "inhibition at 100 µM", "setting": "[1]; [3]", "value": 47.6, "unit": "%"},
      {"measurement": "inhibition at 0.00508 µM", "setting": "[1]; [4]", "value": -5.2, "unit": "%"},
      {"measurement": "inhibition at 0.0152 µM", "setting": "[1]; [4]", "value": -0.0618, "unit": "%"},
      {"measurement": "inhibition at 0.0457 µM", "setting": "[1]; [4]", "value": 0.1, "unit": "%"},
      {"measurement": "inhibition at 0.41 µM", "setting": "[1]; [4]", "value": 8.8, "unit": "%"},
      {"measurement": "inhibition at 1.23 µM", "setting": "[1]; [4]", "value": 2.5, "unit": "%"},
      {"measurement": "inhibition at 3.7 µM", "setting": "[1]; [4]", "value": 5.4, "unit": "%"},
      {"measurement": "inhibition at 11.11 µM", "setting": "[1]; [4]", "value": -1.6, "unit": "%"},
      {"measurement": "inhibition at 33.33 µM", "setting": "[1]; [4]", "value": 14, "unit": "%"},
      {"measurement": "inhibition at 100 µM", "setting": "[1]; [4]", "value": 38.6, "unit": "%"},
      {"measurement": "IC50", "setting": "[2]; MDA-MB-436", "value": 74.1, "unit": "µM"},
      {"measurement": "IC50", "setting": "[2]; MDA-MB-436, 72 h", "value": 74.1, "unit": "µM"},
      {"measurement": "IC50", "setting": "[2]; MDA-MB-436, 72 h, read-out: MDA-MB-436 IC50 (μM)", "value": 74.1, "unit": "µM"},
      {"measurement": "inhibition at 0.00508 µM", "setting": "[2]; MDA-MB-436, read-out: Inh % 1", "value": 2.1, "unit": "%"},
      {"measurement": "inhibition at 0.0152 µM", "setting": "[2]; MDA-MB-436, read-out: Inh % 1", "value": -3.5, "unit": "%"},
      {"measurement": "inhibition at 0.0457 µM", "setting": "[2]; MDA-MB-436, read-out: Inh % 1", "value": -5.7, "unit": "%"},
      {"measurement": "inhibition at 0.41 µM", "setting": "[2]; MDA-MB-436, read-out: Inh % 1", "value": -16.8, "unit": "%"},
      {"measurement": "inhibition at 1.23 µM", "setting": "[2]; MDA-MB-436, read-out: Inh % 1", "value": -6, "unit": "%"},
      {"measurement": "inhibition at 3.7 µM", "setting": "[2]; MDA-MB-436, read-out: Inh % 1", "value": -10.1, "unit": "%"},
      {"measurement": "inhibition at 11.11 µM", "setting": "[2]; MDA-MB-436, read-out: Inh % 1", "value": 0.536, "unit": "%"},
      {"measurement": "inhibition at 33.33 µM", "setting": "[2]; MDA-MB-436, read-out: Inh % 1", "value": 21.6, "unit": "%"},
      {"measurement": "inhibition at 100 µM", "setting": "[2]; MDA-MB-436, read-out: Inh % 1", "value": 68, "unit": "%"},
      {"measurement": "inhibition at 0.00508 µM", "setting": "[2]; MDA-MB-436, read-out: Inh % 2", "value": -5, "unit": "%"},
      {"measurement": "inhibition at 0.0152 µM", "setting": "[2]; MDA-MB-436, read-out: Inh % 2", "value": -7, "unit": "%"},
      {"measurement": "inhibition at 0.0457 µM", "setting": "[2]; MDA-MB-436, read-out: Inh % 2", "value": -13.4, "unit": "%"},
      {"measurement": "inhibition at 0.41 µM", "setting": "[2]; MDA-MB-436, read-out: Inh % 2", "value": -9.8, "unit": "%"},
      {"measurement": "inhibition at 1.23 µM", "setting": "[2]; MDA-MB-436, read-out: Inh % 2", "value": -9.1, "unit": "%"},
      {"measurement": "inhibition at 3.7 µM", "setting": "[2]; MDA-MB-436, read-out: Inh % 2", "value": -17.7, "unit": "%"},
      {"measurement": "inhibition at 11.11 µM", "setting": "[2]; MDA-MB-436, read-out: Inh % 2", "value": -6.9, "unit": "%"},
      {"measurement": "inhibition at 33.33 µM", "setting": "[2]; MDA-MB-436, read-out: Inh % 2", "value": 10.8, "unit": "%"},
      {"measurement": "inhibition at 100 µM", "setting": "[2]; MDA-MB-436, read-out: Inh % 2", "value": 46.7, "unit": "%"},
      {"measurement": "LogIC50", "setting": "[2]; MDA-MB-436, curve fit on Log (uM) concentrations", "value": 1.87},
      {"measurement": "Top", "setting": "[2]; MDA-MB-436, curve fit parameter (Inh %), '= 100.0' is a constrained value", "value": "= 100.0"},
      {"measurement": "inhibition at 0.01 µM", "setting": "PARP-2; read-out: 10 nM inhibition% PAPR-2", "value": 6.45, "unit": "%"},
      {"measurement": "inhibition at 0.01 µM", "setting": "PARP-2; read-out: PARP-2 Inhibition % (10 nM)", "value": 6.5, "unit": "%"},
      {"measurement": "inhibition at 0.01 µM", "setting": "PARP-1; read-out: 10 nM inhibition% PAPR-1", "value": -2.11, "unit": "%"},
      {"measurement": "inhibition at 0.01 µM", "setting": "PARP-1; read-out: PARP-1 Inhibition % (10 nM)", "value": -2.1, "unit": "%"}
    ]}
  ]
}
